Test results reported in patent US20230181801A1, “MOLECULAR IODINE-INFUSED POLYMERS, ARTICLES, AND PRODUCTS, AND THEIR PREPARATION AND USE” (I2PURE CORP., priority 2021, published 2023).

What was measured:
[1] = room temperature; cited from earlier work
[2] = Stability of molecular iodine in solvent at room temperature; type: physicochemical; details: in ethanol, 15 days at room temperature in the dark

SMILES: II [I2, molecular iodine]
- maximum solubility in water [1]: 332 ppm
- loss of molecular iodine [2]: over 15%
